Results: ChEMBL document CHEMBL2040728, “New substituted 4H-chromenes as anticancer agents” (Bioorg Med Chem Lett, 2012)
Calls of active or inactive are those of the source. The rule behind the calls is not given here.

Experiments:
T98G = assay: Antiproliferative activity against human T98G cells after 5 days by MTT assay; assay type: functional, cell-based; details: 120 h
Bos taurus [1] = species: Bos taurus; assay: Inhibition of bovine brain tubulin polymerization after 20 mins by spectrophotometric analysis
[2] = Antiproliferative activity against human LN18 cells after 5 days by MTT assay; assay type: functional, cell-based; details: LN-18, 120 h
[3] = Antiproliferative activity against human A172 cells after 5 days by MTT assay; assay type: functional, cell-based; details: A 172, 120 h
Bos taurus [4] = species: Bos taurus; assay: Inhibition of bovine brain tubulin polymerization at 20 uM after 20 mins by spectrophotometric analysis
[5] = Antiproliferative activity against human WM164 cells after 48 hrs by SRB assay; assay type: functional, cell-based; details: WM164, 48 h
PC-3 = assay: Antiproliferative activity against human PC3 cells after 96 hrs by SRB assay; assay type: functional, cell-based; details: PC-3, 96 h
LNCaP = assay: Antiproliferative activity against human LNCAP cells after 96 hrs by SRB assay; assay type: functional, cell-based
Bos taurus [6] = species: Bos taurus; assay: Inhibition of bovine brain tubulin polymerization at 10 uM after 20 mins by spectrophotometric analysis
[7] = Antiproliferative activity against human paclitaxel-resistant PC3-TxR cells after 96 hrs by SRB assay; assay type: functional, cell-based
A-375 = assay: Antiproliferative activity against human A375 cells after 48 hrs by SRB assay; assay type: functional, cell-based; details: A-375, 48 h
[8] = Cytotoxicity against mouse primary astrocytes after 5 days by MTT assay; assay type: cell-based; details: Astrocyte, 120 h
[9] = Antiproliferative activity against human U87 cells after 5 days by MTT assay; assay type: functional, cell-based, U-87MG ATCC; details: U-87 MG, 120 h
Bos taurus [10] = species: Bos taurus; assay: Inhibition of bovine brain tubulin polymerization at 5 uM after 20 mins by spectrophotometric analysis relative to control

Row | inhibition (Bos taurus [1]) | inhibition (Bos taurus [4]) [%] | IC50 (PC-3) [nM] | IC50 (LNCaP) [nM] | inhibition (Bos taurus [6]) [%] | IC50 (A-375) [nM] | inhibition (Bos taurus [10]) | Compound | IC50 (T98G) [nM] | IC50 [2] [nM] | IC50 [3] [nM] | IC50 [5] [nM] | IC50 [7] [nM] | IC50 [8] [nM] | IC50 [9] [nM]
1 | Dose-dependent effect | 68 | 220 | 140 | 29 | 80 | – | CN(C)c1ccc2c(c1)OC(N)=C(C#N)C2c1ccc(N(C)C)c2ccccc12 (stereo unspecified) | 12.5 | 13.3 | 7.4 | 160 | 230 | 2030 | 20.6
2 | – | – | 390 | 280 | – | 140 | – | CN(C)c1ccc2c(c1)OC(N)=C(C#N)C2c1cccc2c(Br)cccc12 (stereo unspecified) | – | – | – | 220 | 210 | – | –
3 | – | – | – | – | – | – | inactive | CC(=O)O[C@H]1C(=O)[C@@]2(C)[C@H]([C@H](OC(=O)c3ccccc3)[C@]3(O)C[C@H](OC(=O)[C@H](O)[C@@H](NC(=O)c4ccccc4)c4ccccc4)C(C)=C1C3(C)C)[C@]1(OC(C)=O)CO[C@@H]1C[C@@H]2O | – | – | – | – | – | – | –
4 | – | – | – | – | – | – | – | COc1cc2c(c(OC)c1OC)-c1ccc(OC)c(=O)cc1[C@@H](NC(C)=O)CC2 [COLCHICINE] | – | – | – | 30 | 20 | – | –
